Data from patent US10676429B2, “Sulfamoyl-arylamides and the use thereof as medicaments for the treatment of hepatitis B” (priority 2012, dated 2020).
pEC50: −log10 of the molar value.

How the values were obtained:
[1] = test system: HBV; test: Anti-HBV activity in stable transfected HepG2.2.15 cell line (HBV DNA from secreted virions, realtime PCR); format: cell-based; settings: HepG2.2.15 cells, 6 days of treatment, secreted virion HBV DNA, read-out: HepG2 2.15 EC50
[2] = test system: HepG2 cells; test: Cytotoxicity in HepG2 cells, 4 days, Resazurin assay; settings: read-out: HepG2 4 days CC50; HepG2 cells, 4 days, Resazurin
[3] = test system: HBV; test: Anti-HBV activity in HepG2.117 cell line (Tet-off, intracellular HBV DNA, realtime PCR); format: cell-based; settings: HepG2.117 cells, 3 days of treatment, intracellular HBV DNA, read-out: HepG2 117 EC50
[4] = Cytotoxicity in HepG2 cells, 4 days, Resazurin assay; settings: human, HepG2 cells
[5] = Hepatitis B virus, HepG2.117, 72 h
[6] = Hepatitis B virus, HepG2.2.15, 144 h

SMILES: Cc1cc(NC(=O)c2cccc(S(=O)(=O)NC3CC(=O)N(C)C3)c2)ccc1F (racemic) [Compound 179a]
- pEC50 [1]: 6.42
- CC50 [2]: > 25000 nM
- pEC50 [3]: 6.60

SMILES: Cc1cc(NC(=O)c2cccc(S(=O)(=O)NC3CC(=O)N(C)C3)c2)ccc1F (racemic) [Compound 179b]
- pEC50 [1]: 5.95
- CC50 [2]: > 25000 nM
- pEC50 [3]: 5.74

SMILES: O=C(Nc1ccc(F)cc1)c1cccc(S(=O)(=O)NC2CCCCC2)c1 [Compound 6]
- CC50 [2]: > 25000 nM
- pEC50 [3, 5]: 6.24

SMILES: Cc1cc(NC(=O)c2cccc(S(=O)(=O)N[C@@H]3c4ccccc4C[C@H]3O)c2)ccc1F [Compound 175]
- pEC50 [1, 6]: 6.64
- CC50 at 4 days [4]: > 25000 nM
- pEC50 [3, 5]: 6.82

SMILES: Cc1cc(NC(=O)c2cccc(S(=O)(=O)N[C@H]3c4ccccc4C[C@@H]3O)c2)ccc1F [Compound 176]
- pEC50 [1, 6]: 6.21
- CC50 at 4 days [4]: > 25000 nM
- pEC50 [3, 5]: 6.25

SMILES: Cc1cc(NC(=O)c2cccc(S(=O)(=O)N[C@H]3c4ccccc4C[C@H]3O)c2)ccc1F [Compound 177]
- pEC50 [1, 6]: 6.11
- CC50 at 4 days [4]: > 25000 nM
- pEC50 [3, 5]: 6.14

SMILES: Cc1cc(NC(=O)c2cccc(S(=O)(=O)N[C@@H]3CCc4ccccc4[C@H]3O)c2)ccc1F [Compound 178]
- pEC50 [1, 6]: 6.12
- CC50 at 4 days [4]: > 25000 nM
- pEC50 [3, 5]: 5.60

SMILES: Cc1cc(NC(=O)c2cccc(S(=O)(=O)NC3CCC(=O)N(C)C3)c2)ccc1F (centres unmarked) [Compound 180]
- pEC50 [1, 6]: 6.12
- CC50 at 4 days [4]: > 25000 nM
- pEC50 [3, 5]: 5.89

SMILES: Cc1cc(NC(=O)c2cccc(S(=O)(=O)NC3CCN(C)C3=O)c2)ccc1F (centres unmarked) [Compound 181]
- pEC50 [1, 6]: 5.59
- CC50 at 4 days [4]: > 25000 nM
- pEC50 [3, 5]: 5.69

SMILES: Cc1cc(NC(=O)c2cccc(S(=O)(=O)NC3CN(C(=O)OC(C)(C)C)C3)c2)ccc1F [Compound 182]
- pEC50 [1, 6]: 6.51
- CC50 at 4 days [4]: > 25000 nM
- pEC50 [3, 5]: 6.06

SMILES: Cc1cc(NC(=O)c2cccc(S(=O)(=O)NC3(C(F)(F)F)CC3)c2)ccc1F [Compound 183]
- pEC50 [1, 6]: 7.10
- CC50 at 4 days [4]: > 25000 nM
- pEC50 [3, 5]: 6.08

SMILES: Cc1cc(NC(=O)c2cccc(S(=O)(=O)NC3CC(O)C3)c2)ccc1F (centres unmarked) [Compound 184]
- pEC50 [1, 6]: 6.82
- CC50 at 4 days [4]: > 25000 nM
- pEC50 [3, 5]: 6.40

SMILES: Cc1cc(NC(=O)c2cccc(S(=O)(=O)N[C@H]3C[C@H](O)C3)c2)ccc1F [Compound 184a]
- pEC50 [1, 6]: 6.51
- CC50 at 4 days [4]: > 25000 nM
- pEC50 [3, 5]: 6.11

SMILES: Cc1cc(NC(=O)c2cccc(S(=O)(=O)N[C@H]3C[C@@H](O)C3)c2)ccc1F [Compound 184b]
- pEC50 [1, 6]: 6.52
- CC50 at 4 days [4]: > 25000 nM
- pEC50 [3, 5]: 6.48

SMILES: COC(=O)N1CC(NS(=O)(=O)c2cccc(C(=O)Nc3ccc(F)c(C)c3)c2)C1 [Compound 185]
- pEC50 [1, 6]: 6.66
- CC50 at 4 days [4]: > 25000 nM
- pEC50 [3, 5]: 6.21

SMILES: Cc1cc(NC(=O)c2cccc(S(=O)(=O)NC(C)C)c2)cc(C)c1F [Compound 186]
- pEC50 [1, 6]: 6.70
- CC50 at 4 days [4]: > 25000 nM
- pEC50 [3, 5]: 5.87

SMILES: Cc1ccc(S(=O)(=O)NC2(C)COC2)c(F)c1C(=O)Nc1ccc(F)c(C#N)c1 [Compound 191]
- pEC50 [1, 6]: 6.48
- CC50 at 4 days [4]: > 25000 nM
- pEC50 [3, 5]: 6.44

SMILES: Cc1ccc(S(=O)(=O)NC2(C)COC2)c(F)c1C(=O)Nc1ccc(F)c(F)c1 [Compound 194]
- pEC50 [1, 6]: 6.42
- CC50 at 4 days [4]: > 25000 nM
- pEC50 [3, 5]: 6.51

SMILES: Cc1ccc(S(=O)(=O)NC2(C)COC2)c(F)c1C(=O)Nc1ccc(F)c(Cl)c1 [Compound 195]
- pEC50 [1, 6]: 6.57
- CC50 at 4 days [4]: > 25000 nM
- pEC50 [3, 5]: 6.74

SMILES: O=C(Nc1ccc(F)c(F)c1)c1c(F)ccc(S(=O)(=O)N[C@H]2CCOC2)c1F [Compound 196]
- pEC50 [1, 6]: 6.89
- CC50 at 4 days [4]: > 25000 nM
- pEC50 [3, 5]: 7.15

SMILES: O=C(Nc1ccc(F)c(Cl)c1)c1c(F)ccc(S(=O)(=O)N[C@H]2CCOC2)c1F [Compound 201]
- pEC50 [1, 6]: 7.22
- CC50 at 4 days [4]: > 25000 nM
- pEC50 [3, 5]: 7.22

SMILES: CC1(NS(=O)(=O)c2cc(Cl)cc(C(=O)Nc3ccc(F)c(C(F)F)c3)c2F)COC1 [Compound 217]
- pEC50 [1, 6]: 6.70
- CC50 at 4 days [4]: > 25000 nM
- pEC50 [3, 5]: 6.22

SMILES: CC1(NS(=O)(=O)c2cccc(C(=O)Nc3ccc(F)c(C(F)F)c3)c2F)COC1 [Compound 218]
- pEC50 [1, 6]: 6.92
- CC50 at 4 days [4]: > 25000 nM
- pEC50 [3, 5]: 7.00

SMILES: O=C(Nc1ccc(F)c(C(F)F)c1)c1cccc(S(=O)(=O)N[C@H]2CCOC2)c1F [Compound 220]
- pEC50 [1, 6]: 6.96
- CC50 at 4 days [4]: > 25000 nM
- pEC50 [3, 5]: 7.05

SMILES: Cc1cc(NC(=O)c2cccc(S(=O)(=O)NC3(C)COC3)c2F)ccc1F [Compound 222]
- pEC50 [1, 6]: 7.30
- CC50 at 4 days [4]: > 25000 nM
- pEC50 [3, 5]: 7.00

SMILES: Cc1cc(NC(=O)c2cccc(S(=O)(=O)NC(C)Cc3ccncc3)c2)ccc1F (centres unmarked) [Compound 224]
- pEC50 [1, 6]: 6.80
- CC50 at 4 days [4]: > 25000 nM
- pEC50 [3, 5]: 6.12

SMILES: Cc1cc(NC(=O)c2cccc(S(=O)(=O)N[C@H](C)C(F)(F)F)c2)ccc1F [Compound 225]
- pEC50 [1, 6]: 7.05
- CC50 at 4 days [4]: > 25000 nM
- pEC50 [3, 5]: 5.87

SMILES: Cc1cc(NC(=O)c2cccc(S(=O)(=O)N[C@@H](C)C(F)(F)F)c2)ccc1F [Compound 226]
- pEC50 [1, 6]: 6.57
- CC50 at 4 days [4]: > 25000 nM
- pEC50 [3, 5]: 5.72

SMILES: Cc1cc(NC(=O)c2cccc(S(=O)(=O)NCC(F)F)c2)ccc1F [Compound 227]
- pEC50 [1, 6]: 6.80
- CC50 at 4 days [4]: > 25000 nM
- pEC50 [3, 5]: 6.15

SMILES: Cc1cc(NC(=O)c2cccc(S(=O)(=O)NCC(F)(F)F)c2)ccc1F [Compound 228]
- pEC50 [1, 6]: 6.77
- CC50 at 4 days [4]: > 25000 nM
- pEC50 [3, 5]: 5.92

SMILES: Cc1cc(NC(=O)c2cccc(S(=O)(=O)NC3CCC(F)(F)C3)c2)ccc1F (centres unmarked) [Compound 229]
- pEC50 [1, 6]: 6.70
- CC50 at 4 days [4]: > 25000 nM
- pEC50 [3, 5]: 6.31

SMILES: Cc1cc(NC(=O)c2cc(S(=O)(=O)NC(C)C)oc2C)ccc1F [Compound 230]
- pEC50 [1, 6]: 6.14
- CC50 at 4 days [4]: > 25000 nM
- pEC50 [3, 5]: 5.82

SMILES: Cc1cc(NC(=O)c2ccc(S(=O)(=O)NC3(C)COC3)o2)ccc1F [Compound 231]
- pEC50 [1, 6]: 6.68
- CC50 at 4 days [4]: > 25000 nM
- pEC50 [3, 5]: 6.49

SMILES: CC1(NS(=O)(=O)c2ccc(Cl)c(C(=O)Nc3ccc(F)c(C(F)(F)F)c3)c2)COC1 [Compound 233]
- pEC50 [1, 6]: < 6.00
- CC50 at 4 days [4]: > 25000 nM
- pEC50 [3, 5]: < 6.00

SMILES: CC1(NS(=O)(=O)c2ccc(Cl)c(C(=O)Nc3ccc(F)c(F)c3)c2)COC1 [Compound 234]
- pEC50 [1, 6]: 6.14
- CC50 at 4 days [4]: > 25000 nM
- pEC50 [3, 5]: 6.47

SMILES: CC1(NS(=O)(=O)c2ccc(Cl)c(C(=O)Nc3ccc(F)c(C(F)F)c3)c2)COC1 [Compound 235]
- pEC50 [1, 6]: 6.08
- CC50 at 4 days [4]: > 25000 nM
- pEC50 [3, 5]: 6.48

SMILES: Cc1cc(NC(=O)c2cc(S(=O)(=O)N[C@H]3CCOC3)ccc2F)ccc1F [Compound 236]
- pEC50 [1, 6]: 6.32
- CC50 at 4 days [4]: > 25000 nM
- pEC50 [3, 5]: 5.80

SMILES: Cc1cc(NC(=O)c2cc(S(=O)(=O)N[C@H]3CCOC3)ccc2Br)ccc1F [Compound 237]
- pEC50 [1, 6]: 6.37
- CC50 at 4 days [4]: > 25000 nM
- pEC50 [3, 5]: 6.89

SMILES: Cc1ccc(S(=O)(=O)NC2(C)COC2)cc1C(=O)Nc1ccc(F)c(C(F)(F)F)c1 [Compound 238]
- pEC50 [1, 6]: 6.21
- CC50 at 4 days [4]: > 25000 nM
- pEC50 [3, 5]: 6.30

SMILES: Cc1cc(NC(=O)c2ccc(F)c(S(=O)(=O)N[C@H]3CCOC3)c2)ccc1F [Compound 239]
- pEC50 [1, 6]: 6.32
- CC50 at 4 days [4]: > 25000 nM
- pEC50 [3, 5]: 6.28

SMILES: Cc1cc(NC(=O)c2cc(F)cc(S(=O)(=O)NC(C)C)c2)ccc1F [Compound 240]
- pEC50 [1, 6]: 6.40
- CC50 at 4 days [4]: > 25000 nM
- pEC50 [3, 5]: 5.54

SMILES: Cc1cc(NC(=O)c2cc(F)cc(S(=O)(=O)N[C@H]3CCOC3)c2)ccc1F [Compound 241]
- pEC50 [1, 6]: 6.42
- CC50 at 4 days [4]: > 25000 nM
- pEC50 [3, 5]: 5.75

SMILES: Cc1cc(NC(=O)c2cc(S(=O)(=O)N[C@H]3CCOC3)ccc2C(F)(F)F)ccc1F [Compound 242]
- pEC50 [1, 6]: 5.72
- CC50 at 4 days [4]: > 25000 nM
- pEC50 [3, 5]: 5.74
